The subject of one experiment is SNU-638. Nature of the experiment: Antiproliferative activity against human SNU638 cells after 72 hrs by sulforhodamine B assay. Format: functional, cell-based. To be noted: SNU-638, 72 h.
Experiment [1] deals with HCT-116. Nature of the experiment: Induction of apoptosis in human HCT116 cells assessed as increase in cleaved caspase 3 level at 4 uM after 48 hrs by Western blot analysis. The experiment is classed as functional, cell-based.
The subject of experiment [2] is HCT-116. Nature of the experiment: Cell cycle arrest in human HCT116 cells assessed as accumulation at subG1 phase at 0.5 uM after 24 hrs by propidium iodide staining based flow cytometry (reference value: 2.25%). The experiment is classed as functional. On the technique in general: In flow cytometry, cells or beads pass a laser one at a time.
Experiment [3] has as its system HCT-116. Nature of the experiment: Antiproliferative activity against human HCT116 cells after 72 hrs by sulforhodamine B assay. The experiment is classed as functional, cell-based. To be noted: HCT-116, 72 h. On the technique in general: Sulforhodamine B stains cellular protein and so reports cell mass.
The next experiment deals with PI3K p110 beta/p85 alpha (Homo sapiens, UniProt P42338). Nature of the experiment: Inhibition of N-terminal His6-tagged recombinant full-length PI3Kbeta (unknown origin)/untagged recombinant full length p85alpha expressed in baculovirus infected Sf21 insect cells by ELISA. On the technique in general: In an ELISA, binding on a coated surface is turned into a signal by an enzyme label.
PI3K p110 beta/p85 alpha, sequence (P27986 whole entry): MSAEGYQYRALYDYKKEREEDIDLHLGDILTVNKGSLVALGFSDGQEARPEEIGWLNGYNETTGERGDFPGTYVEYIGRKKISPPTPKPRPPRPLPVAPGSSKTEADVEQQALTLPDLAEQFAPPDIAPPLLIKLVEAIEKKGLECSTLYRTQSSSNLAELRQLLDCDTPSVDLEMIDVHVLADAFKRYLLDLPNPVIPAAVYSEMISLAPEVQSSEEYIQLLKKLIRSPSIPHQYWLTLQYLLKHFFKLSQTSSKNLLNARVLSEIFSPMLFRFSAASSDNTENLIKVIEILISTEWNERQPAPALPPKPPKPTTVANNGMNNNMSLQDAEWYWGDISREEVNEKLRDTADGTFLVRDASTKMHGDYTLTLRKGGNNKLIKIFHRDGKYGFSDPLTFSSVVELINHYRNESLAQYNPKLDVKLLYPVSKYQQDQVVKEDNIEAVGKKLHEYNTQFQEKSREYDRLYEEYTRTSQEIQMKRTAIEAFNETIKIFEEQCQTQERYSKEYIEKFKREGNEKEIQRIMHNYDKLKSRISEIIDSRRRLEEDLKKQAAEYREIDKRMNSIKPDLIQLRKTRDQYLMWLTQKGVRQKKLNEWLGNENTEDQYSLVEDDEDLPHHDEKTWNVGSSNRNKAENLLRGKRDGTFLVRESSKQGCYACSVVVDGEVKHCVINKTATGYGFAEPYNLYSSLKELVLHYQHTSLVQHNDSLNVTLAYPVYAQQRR
PI3K p110 beta/p85 alpha, sequence (P42338 whole entry): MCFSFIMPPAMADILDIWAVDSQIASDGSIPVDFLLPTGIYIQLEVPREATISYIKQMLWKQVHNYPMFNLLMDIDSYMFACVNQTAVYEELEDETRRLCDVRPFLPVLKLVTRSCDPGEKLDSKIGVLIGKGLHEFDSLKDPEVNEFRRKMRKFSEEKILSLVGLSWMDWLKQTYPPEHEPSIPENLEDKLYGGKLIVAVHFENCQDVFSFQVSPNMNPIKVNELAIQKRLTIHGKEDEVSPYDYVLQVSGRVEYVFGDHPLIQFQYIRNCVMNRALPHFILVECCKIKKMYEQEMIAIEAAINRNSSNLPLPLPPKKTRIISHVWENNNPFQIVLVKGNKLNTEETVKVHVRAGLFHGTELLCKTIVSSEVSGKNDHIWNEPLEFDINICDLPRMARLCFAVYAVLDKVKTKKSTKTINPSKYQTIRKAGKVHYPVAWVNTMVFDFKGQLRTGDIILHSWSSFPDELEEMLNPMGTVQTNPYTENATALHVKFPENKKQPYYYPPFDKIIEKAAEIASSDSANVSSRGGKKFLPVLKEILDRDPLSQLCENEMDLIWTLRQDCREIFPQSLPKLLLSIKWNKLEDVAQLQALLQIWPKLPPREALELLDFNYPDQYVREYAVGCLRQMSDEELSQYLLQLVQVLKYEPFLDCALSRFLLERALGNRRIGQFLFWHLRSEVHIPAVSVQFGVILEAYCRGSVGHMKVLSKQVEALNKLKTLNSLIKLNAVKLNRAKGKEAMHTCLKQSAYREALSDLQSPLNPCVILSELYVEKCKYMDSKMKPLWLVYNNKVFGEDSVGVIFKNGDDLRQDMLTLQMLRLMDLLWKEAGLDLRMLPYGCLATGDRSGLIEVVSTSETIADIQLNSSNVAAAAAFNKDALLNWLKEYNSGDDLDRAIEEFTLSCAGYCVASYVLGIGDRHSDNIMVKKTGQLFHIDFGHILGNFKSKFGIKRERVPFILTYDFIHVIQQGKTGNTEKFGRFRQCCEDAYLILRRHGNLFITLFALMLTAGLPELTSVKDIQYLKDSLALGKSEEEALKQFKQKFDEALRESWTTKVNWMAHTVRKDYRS

Another experiment has as its system HEK293. Nature of the experiment: Antiproliferative activity against HEK293 cells after 72 hrs by sulforhodamine B assay. Format: cell-based. To be noted: Homo sapiens, HEK293, 72 h.
In experiment [4] the test system is HCT-116. Nature of the experiment: Induction of apoptosis in human HCT116 cells assessed as viable cells at 4 uM after 48 hrs by Annexin V-FITC/propidium iodide staining based flow cytometry (reference value: 94.06%). Format: functional. To be noted: HCT-116, 48 h, read-out: Activity.
Experiment [5] concerns the target PI3-kinase p110-alpha/p85-alpha (Homo sapiens, UniProt P42336). Nature of the experiment: Inhibition of recombinant N-terminal His6-tagged full length PI3K p110alpha (unknown origin)/recombinant untagged full length p85alpha (unknown origin) expressed in baculovirus infected Sf21 insect cells by ELISA.
The test system of experiment [6] is HCT-116. Nature of the experiment: Induction of apoptosis in human HCT116 cells assessed as late apoptotic cells at 4 uM after 48 hrs by Annexin V-FITC/propidium iodide staining based flow cytometry (reference value: 1.43%). The experiment is classed as functional.
The subject of experiment [7] is HCT-116. Nature of the experiment: Cell cycle arrest in human HCT116 cells assessed as accumulation at G0/G1 phase at 0.5 uM after 24 hrs by propidium iodide staining based flow cytometry (reference value: 44.01%). The experiment is classed as functional.
Experiment [8] concerns HCT-116. Nature of the experiment: Induction of apoptosis in human HCT116 cells assessed as late apoptotic cells at 1 uM after 48 hrs by Annexin V-FITC/propidium iodide staining based flow cytometry (reference value: 1.43%). The experiment is classed as functional.
Experiment [9] concerns HCT-116. Nature of the experiment: Induction of apoptosis in human HCT116 cells assessed as necrotic cells at 4 uM after 48 hrs by Annexin V-FITC/propidium iodide staining based flow cytometry (reference value: 0.79%). The experiment is classed as functional.
The subject of experiment [10] is HCT-116. Nature of the experiment: Induction of apoptosis in human HCT116 cells assessed as increase in Bax level at 1 to 4 uM after 48 hrs by Western blot analysis. The experiment is classed as functional, cell-based.
Experiment [11] concerns HCT-116. Nature of the experiment: Induction of apoptosis in human HCT116 cells assessed as early apoptotic cells at 1 uM after 48 hrs by Annexin V-FITC/propidium iodide staining based flow cytometry (reference value: 3.72%). Format: functional.
The subject of experiment [12] is HCT-116. Nature of the experiment: Induction of apoptosis in human HCT116 cells assessed as increase in cytochrome C level at 1 to 4 uM after 48 hrs by Western blot analysis. Format: functional, cell-based.

This passage reports IC50, Activity and viability results from ChEMBL document CHEMBL4219088, “Novel 4-aminoquinazoline derivatives induce growth inhibition, cell cycle arrest and apoptosis via PI3Kα inhibition” (Bioorg Med Chem, 2018).

Calls of active or inactive are those of the source. The rule behind the calls is not given here.

What is called IC50 is the concentration that gives 50% inhibition.

PI3-kinase p110-alpha/p85-alpha, sequence (P27986 whole entry): as the sequence (P27986 whole entry) above
PI3-kinase p110-alpha/p85-alpha, sequence (P42336 whole entry): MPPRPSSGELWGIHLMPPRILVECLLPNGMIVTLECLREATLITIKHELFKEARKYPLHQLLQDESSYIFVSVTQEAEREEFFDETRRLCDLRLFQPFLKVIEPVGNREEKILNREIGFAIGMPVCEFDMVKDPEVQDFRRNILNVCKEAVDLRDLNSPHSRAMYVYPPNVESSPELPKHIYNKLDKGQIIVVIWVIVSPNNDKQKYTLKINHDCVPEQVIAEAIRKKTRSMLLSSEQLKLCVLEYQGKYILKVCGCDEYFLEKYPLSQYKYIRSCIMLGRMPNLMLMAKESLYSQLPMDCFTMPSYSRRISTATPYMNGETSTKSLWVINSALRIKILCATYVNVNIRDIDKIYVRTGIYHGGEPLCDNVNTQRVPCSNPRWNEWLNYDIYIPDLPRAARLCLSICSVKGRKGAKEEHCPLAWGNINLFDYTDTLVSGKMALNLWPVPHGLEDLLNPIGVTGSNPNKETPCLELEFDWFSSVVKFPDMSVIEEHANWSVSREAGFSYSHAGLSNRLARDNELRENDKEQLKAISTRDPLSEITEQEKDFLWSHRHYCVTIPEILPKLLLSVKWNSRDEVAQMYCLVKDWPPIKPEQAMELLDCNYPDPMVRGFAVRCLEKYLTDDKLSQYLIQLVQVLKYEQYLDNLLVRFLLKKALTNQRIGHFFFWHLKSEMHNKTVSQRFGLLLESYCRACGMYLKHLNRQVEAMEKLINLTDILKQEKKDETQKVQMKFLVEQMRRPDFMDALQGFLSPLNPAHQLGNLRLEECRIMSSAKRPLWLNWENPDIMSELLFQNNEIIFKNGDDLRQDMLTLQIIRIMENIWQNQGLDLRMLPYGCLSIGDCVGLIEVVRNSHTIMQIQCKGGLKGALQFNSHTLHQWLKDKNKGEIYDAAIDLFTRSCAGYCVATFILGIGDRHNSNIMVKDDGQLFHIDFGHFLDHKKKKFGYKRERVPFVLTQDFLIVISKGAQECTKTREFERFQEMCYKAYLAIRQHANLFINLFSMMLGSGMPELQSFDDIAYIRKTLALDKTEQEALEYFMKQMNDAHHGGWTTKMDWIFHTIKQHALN

Turning to `CCCCS(=O)(=O)Nc1cc(-c2ccc3ncnc(NCCN(C)C)c3c2)cnc1OC`, the half-maximal inhibitory concentration (IC50) amounted to 480 nM with SNU-638; 160 nM in the experiment on HCT-116 [3]; 396 nM on PI3K p110 beta/p85 alpha; 12600 nM in the experiment on HEK293; 13.6 nM in [5]. Besides, the result in the experiment on HCT-116 [1], in the experiment on HCT-116 [10] and in the experiment on HCT-116 [12] was Active. The Activity with HCT-116 [2] was found to be 3.57%; in the experiment on HCT-116 [6], 4.6%; in the experiment with HCT-116 [7] it was 46.16%; in the experiment with HCT-116 [8], 2.89%; in the experiment with HCT-116 [9] it was 1.02%; in the experiment on HCT-116 [11] it was 10.13%. The viability at 4 µM in the experiment on HCT-116 [4] came to 83.3%.
